From patent publication US20030095990A1, “Microemulsion facial washes comprising specific oils” (Unilever Home & Personal Care USA, Division of Conopco, Inc., priority 2001, published 2003)

Legend:
[1] = Oil spreading time on human inner forearm (spreadability factor S^R); assay type: physicochemical; settings: 4 μL oil, 12 mm×8 mm ellipse on inner forearm; for Relative Spreading Time (spreadability factor S^R): normalized to oleyl oleate, data of present work; for spreading time: two panelists in duplicate
Procedure: As for oil “spreadability factor”, S^R, a semi-quantitative assay was developed by applicants to determine the spreading time for the different oils that have the potential to be used in microemulsions. First, an elliptic shape with 12 mm×8 mm diameters was marked on the inner forearm of a panelist. Because of the textural orientation of the skin, the spreading trace is usually in an elliptic shape. […] According to the test, 4 μL of the tested oil was dosed in the center of the area. The time when the oil arrived at the marked outline was recorded as the spreading time of the oil. The data were obtained on two panelists with duplicate tests for each oil. The average values were taken as the results. The spreading time of oleyl oleate was than used to normalize the measured values. For example, the spreading time for oleyl oleate is 1.3+0.03 minutes for IPM so the relative spreading time for IPM is 0.5/1.3=0.4. Thus, the spreadability factor, S^R, is ratio of spread rate of selected oil (measured in minutes) to spread rate of oleyl oleate (also measured in minutes).
Using this test, examples of oil spreading times are noted below: […]

[2] = Cognis spreading area over fixed time, converted using oleyl oleate as control; cited from earlier work
[3] = Viscosity, ARES Rheometer, strain controlled mode; assay type: physicochemical; settings: 20-23° C.
Source text: The ARES Rheometer manufactured by Rheometric Scientific™ was used for measuring viscosities in strain controlled mode. Fluid behavior of the microemulsions is different from conventional skin cleansers. They are Newtonian liquids, so the viscosity is constant with varying shear rate or time. […] As noted, the viscosities of the two microemulsions are much lower than for the competitors' liquid cleansers. However, low viscosity may ease penetration into crevices. Make-up removal efficacy may be directly related to product viscosity, i.e., an increased viscosity of a product caused a reduction in make-up removal. […] Pond's Clear Solutions® Deep Pore Foaming cleanser has an even lower viscosity than the microemulsions. It is packaged in a bottle with aeration upon dispensing, providing a thick and creamy foam. Microemulsions can be used as a cleansing milk or impregnated onto a non-woven.
To simulate the effect of sebum dissolution in washing process on the viscosity of the microemulsion, 2% model sebum was dissolved in microemulsion #1. From the results, one can expect that the good properties of the microemulsion, i.e., solvency and low viscosity, will be maintained during the washing process.

| Molecule | Relative Spreading Time (spreadability factor S^R) [1] | Relative Spreading Time [2] | further results |
| --- | --- | --- | --- |
| CCCCCCCCCCC(CO)CCCCCCCC (centres unmarked) [Octyl Dodecanol] |  | 0.7 |  |
| CCCCCCCC/C=C\CCCCCCCCO [Oleyl Alcohol] |  | 0.6 |  |
| CCCCCCCC/C=C\CCCCCCCCCCCC(=O)OCCCCCCCC/C=C\CCCCCCCC [Oleyl Eructate] |  | 1.2 |  |
| O [Water] |  |  | Viscosity at Shear Rate 10 s^−1 [3]: 1 mPa-s |
| Dioctyl Cyclohexane |  | 0.5 |  |

Second part, led by results:

| Relative Spreading Time (spreadability factor S^R) [1] | Molecule | Relative Spreading Time [2] | further results |
| --- | --- | --- | --- |
| 0.2 | CCCCCCCCOCCCCCCCC [Cetiol ® OE: Di-N-Octyl Ether, Di-N-Octyl Ether] |  |  |
| 0.9 | CCCCCCCC(=O)OCC(COC(=O)CCCCCCC)OC(=O)CCCCCCC [Glycerol Tricaprylate] |  |  |
| 0.4 | CCCCCCCCCCCCCC(=O)OC(C)C [Isopropanol Myristrate] | 0.4 | spreading time [1]: 0.5 min |
| 0.7 | CCCCCCCCCCCCCCCC(=O)OC(C)C [Isopropanol Palmitate] |  |  |
| 1 | CCCCCCCC/C=C\CCCCCCCCOC(=O)CCCCCCC/C=C\CCCCCCCC [Oleyl Oleate, reference compound] | 1 | spreading time [1]: 1.3 ± 0.03 min |
| 1.0 | CC(C)CCCC(C)CCCC(C)CCCCC(C)CCCC(C)CCCC(C)C (centres unmarked) [Squalane] |  |  |
| 0.8 | CC(C)=CCC/C(C)=C/CC/C(C)=C/CC/C=C(\C)CC/C=C(\C)CCC=C(C)C [Squalene] |  |  |
| 2.5 | Pentahydrosqualene |  |  |
